The source of these data is patent US11130752B2, “Aminopyrimidine compound” (Cardurion Pharmaceuticals, LLC, priority 2018, dated 2021).

pIC50: −log10 of the molar value.

Data set [1] concerns the target T1, human CaMKIIδ (Homo sapiens, UniProt Q13557).
T1 construct: Full-length, glutathione-S-transferase(GST)-tagged, human CaMKIIδ was purchased from Carna Biosciences; purchased Carna Biosciences (CaMKIIδ); Wako Pure Chemical Industries (calmodulin) 02-111
The experiment in a line: In vitro CaMKII inhibitory activity (binding assay, TR-FRET). Particulars: activity ranks. The gist of the method: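 TR-FRET displacement of a BODIPY probe (300 nM) from 0.5 nM full-length GST-tagged human CaMKIIδ, with Tb-anti-GST, calmodulin and 1 mM CaCl2 in pH 7.6 HEPES/MgCl2 buffer. Read after 1 hr at room temperature over an eight-point 4-fold series. IC50 by logistic fit, with 3 μM parent compound as the 100% control.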
Background: TR-FRET usually uses a lanthanide donor and a delayed reading to cut background.

The test system of data set [2] is phospholamban (Thr17, PLN) phosphorylation, cardiac CaMKII. The experiment in a line: In vivo cardiac CaMKII inhibition (oral administration), P-PLN Western blot. Particulars: male CD (SD) IGS rat left ventricle, 30 mg/kg p.o., 4 hr after administration, in comparison with vehicle-treated group, read-out: Reduction rate of P-PLN. The procedure: Evaluation of In Vivo Cardiac CaMKII Inhibition (Oral Administration)
To evaluate potency of test compounds to inhibit cardiac CaMKII kinase in vivo, phosphorylation levels of CaMKII-specific sites of phospholamban (Thr17, PLN) were measured in the heart of rats administered orally with test compounds.
Test compounds were suspended in 0.5% [w/v]methylcellulose/water solution and administered (30 mg/kg) to male CD (SD) IGS rat (6-8 weeks old, n=4) by the p.o. route (5 mL/kg). At 4 hours after the administration, rats were sacrificed and the hearts were harvested. After washing the isolated hearts with ice-cold saline, connective tissues were removed on ice, and the isolated left ventricle were frozen into liquid nitrogen gas and stored at −80° C.
The left ventricle samples were homogenized in RIPA-buffer containing phosphatase inhibitors and protease inhibitors. Samples were analyzed by Western blotting using anti-P-PLN (Thr17, Santa Cruz Biotechnology, sc-17024-R) antibody. The band intensities were quantified using an imaging system and were normalized relative to the vehicle-treated group.
Background: Immunoblotting shows a protein as a band on a membrane.

Data set [3] deals with HepG2 cells. The experiment in a line: In vitro cytotoxicity (cellular ATP content, CellTiter-Glo). Type of data set: cell-based. Conditions: 33 μM, 72 hr incubation. The procedure:
Evaluation of In Vitro Cytotoxicity
To evaluate in vitro cytotoxicity of test compounds, % ATP reduction was determined in the presence of 33 μM of each test compound after 72 hr incubation.
HepG2 cells were seeded in DMEM (Invitrogen) containing 10% FBS (Corning)+glucose (4.5 g/L) for 24 hr to allow cell adhesion. For compound treatments, compounds were diluted in DMSO and the media, followed by added to the wells (24 hr after the cell seeding) to obtain the desired final concentration (33 μM, n=2). The final DMSO concentration was 1%. After 72 hr, cellular ATP contents were measured using CellTiter-Glo Luminescent Cell Viability Assay (Promega). The % ATP reduction was determined by comparing the ATP contents in the absence and the presence of test compounds.
For orientation: Cellular ATP, detected with luciferase, serves as a proxy for viable cell number.

Setting [4] is: Table 1, GST-tagged human CaMKIIδ.
Setting [5] is: Table 4, GST-tagged human CaMKIIδ.

With `CCOCCOc1nn([C@H]2CC[C@H](N3[C@@H]4CC[C@H]3COC4)CC2)cc1Nc1ncc(-c2ccc(C#N)c(O[C@@H](C)Cn3cnnn3)c2)cn1` [Example 12, 2-(((S)-1-(1H-tetrazol-1-yl)propan-2-yl)oxy)-4-(2-((1-((1r,4r)-4-((1R,5S)-3-oxa-8-azabicyclo[3.2.1]octan-8-yl)cyclohexyl)-3-(2-ethoxyethoxy)-1H-pyrazol-4-yl)amino)pyrimidin-5-yl)benzonitrile], in data set [1] (setting [4]), the pIC50 – broadly, the IC50 on a negative log10 scale, so that one unit is a factor of ten – is above 8.00. In addition, in data set [2], the inhibition in vivo at 30 mg/kg was above 30%.
On to `COCCCOc1nn([C@H]2CC[C@H](N3CCOCC3)CC2)cc1Nc1ncc(-c2ccc(C#N)c(O[C@@H](C)Cn3cnnn3)c2)cn1` [Example 26, 2-(((S)-1-(1H-tetrazol-1-yl)propan-2-yl)oxy)-4-(2-((3-(3-methoxypropoxy)-1-((1r,4r)-4-morpholinocyclohexyl)-1H-pyrazol-4-yl)amino)pyrimidin-5-yl)benzonitrile], for which the melting point (usually the temperature, or range, at which the solid turns liquid) is 153 °C. The same compound gave a pIC50 in data set [1] (setting [4]) above 8.00. Further, in data set [2], the inhibition in vivo at 30 mg/kg was above 30%. The “% ATP reduction” value in data set [3] amounted to 9%.
`COCCCOc1nn([C@H]2CC[C@H](N3[C@@H]4CC[C@H]3COC4)CC2)cc1Nc1ncc(-c2ccc(C#N)c(O[C@@H](C)Cn3cnnn3)c2)cn1` [Example 30, 2-(((S)-1-(1H-tetrazol-1-yl)propan-2-yl)oxy)-4-(2-((1-((1r,4r)-4-((1R,5S)-3-oxa-8-azabicyclo[3.2.1]octan-8-yl)cyclohexyl)-3-(3-methoxypropoxy)-1H-pyrazol-4-yl)amino)pyrimidin-5-yl)benzonitrile] showed a pIC50 in data set [1] (setting [4]) above 8.00. Also, in data set [2], the inhibition in vivo at 30 mg/kg was above 30%.
In data set [1] (setting [4]), `CCOCCCOc1nn([C@H]2CC[C@H](N3CCOCC3)CC2)cc1Nc1ncc(-c2ccc(C#N)c(O[C@@H](C)Cn3cnnn3)c2)cn1` [Example 33, 2-(((S)-1-(1H-tetrazol-1-yl)propan-2-yl)oxy)-4-(2-((3-(3-ethoxypropoxy)-1-((1r,4r)-4-morpholinocyclohexyl)-1H-pyrazol-4-yl)amino)pyrimidin-5-yl)benzonitrile] showed a pIC50 above 8.00. Moreover, the inhibition in vivo at 30 mg/kg in data set [2] was above 30%.
The matching figures for `CCOCCCOc1nn([C@H]2CC[C@H](N3[C@@H]4CC[C@H]3COC4)CC2)cc1Nc1ncc(-c2ccc(C#N)c(O[C@@H](C)Cn3cnnn3)c2)cn1` [Example 36, 2-(((S)-1-(1H-tetrazol-1-yl)propan-2-yl)oxy)-4-(2-((1-((1r,4r)-4-((1R,5S)-3-oxa-8-azabicyclo[3.2.1]octan-8-yl)cyclohexyl)-3-(3-ethoxypropoxy)-1H-pyrazol-4-yl)amino)pyrimidin-5-yl)benzonitrile]: above 8.00 and above 30%.
Turning to `COCCOCCOc1nn([C@H]2CC[C@H](N3C[C@@H](C)O[C@@H](C)C3)CC2)cc1Nc1ncc(-c2ccc(C#N)c(O[C@@H](C)Cn3cnnn3)c2)cn1.Cl` [Example 241, 2-(((S)-1-(1H-tetrazol-1-yl)propan-2-yl)oxy)-4-(2-((1-((1r,4r)-4-((2S,6R)-2,6-dimethylmorpholino)cyclohexyl)-3-(2-(2-methoxyethoxy)ethoxy)-1H-pyrazol-4-yl)amino)pyrimidin-5-yl)benzonitrile hydrochloride], the pIC50 in data set [1] (setting [4]) is above 8.00. Further, the “% ATP reduction” value in data set [3] is recorded as −2%.
For the compound `C[C@@H]1CN([C@H]2CC[C@H](n3cc(Nc4ncc(-c5ccc(C#N)c(O[C@@H](C)Cn6cnnn6)c5)cn4)c(OCCC4COC4)n3)CC2)C[C@H](C)O1` [Example 477, 2-(((S)-1-(1H-tetrazol-1-yl)propan-2-yl)oxy)-4-(2-((1-((1r,4r)-4-((2S,6R)-2,6-dimethylmorpholino)cyclohexyl)-3-(2-(oxetan-3-yl)ethoxy)-1H-pyrazol-4-yl)amino)pyrimidin-5-yl)benzonitrile], the pIC50 in data set [1] (setting [5]) is above 8.00. In addition, the “% ATP reduction” value in data set [3] is on record as 9%.
In data set [1] (setting [5]), `C[C@@H]1CN([C@H]2CC[C@H](n3cc(Nc4ncc(-c5ccc(Cl)c(O[C@@H](C)Cn6cnnn6)c5)cn4)c(OCCC(C)(C)O)n3)CC2)C[C@H](C)O1` [Example 486, 4-((4-((5-(3-(((S)-1-(1H-tetrazol-1-yl)propan-2-yl)oxy)-4-chlorophenyl)pyrimidin-2-yl)amino)-1-((1r,4r)-4-((2S,6R)-2,6-dimethylmorpholino)cyclohexyl)-1H-pyrazol-3-yl)oxy)-2-methylbutan-2-ol] had a pIC50 above 8.00. Besides, the inhibition in vivo at 30 mg/kg in data set [2] was above 30%.
In data set [1] (setting [5]), `COCCOCCCOc1nn([C@H]2CC[C@H](N3C[C@@H](C)O[C@@H](C)C3)CC2)cc1Nc1ncc(-c2ccc(Cl)c(O[C@@H](C)Cn3cnnn3)c2)cn1` [Example 487, 5-(3-(((S)-1-(1H-tetrazol-1-yl)propan-2-yl)oxy)-4-chlorophenyl)-N-(1-((1r,4r)-4-((2S,6R)-2,6-dimethylmorpholino)cyclohexyl)-3-(3-(2-methoxyethoxy)propoxy)-1H-pyrazol-4-yl)pyrimidin-2-amine] gave a pIC50 above 8.00. Also, the inhibition in vivo at 30 mg/kg in data set [2] is above 30%.
`COCCOCCCOc1nn([C@H]2CC[C@H](N3C[C@@H](C)O[C@@H](C)C3)CC2)cc1Nc1ncc(-c2ccc(C#N)c(O[C@@H](C)Cn3cnnn3)c2)cn1` [Example 488, 2-(((S)-1-(1H-tetrazol-1-yl)propan-2-yl)oxy)-4-(2-((1-((1r,4r)-4-((2S,6R)-2,6-dimethylmorpholino)cyclohexyl)-3-(3-(2-methoxyethoxy)propoxy)-1H-pyrazol-4-yl)amino)pyrimidin-5-yl)benzonitrile] gave a pIC50 in data set [1] (setting [5]) above 8.00. Moreover, the inhibition in vivo at 30 mg/kg in data set [2] was above 30%. Further, the “% ATP reduction” value in data set [3] stood at 3%.
In turn, `COCCCOc1nn([C@H]2CC[C@H](N3C[C@@H](C)O[C@@H](C)C3)CC2)cc1Nc1ncc(-c2ccc(Cl)c(O[C@@H](C)Cn3cnnn3)c2)cn1` [Example 489, 5-(3-(((S)-1-(1H-tetrazol-1-yl)propan-2-yl)oxy)-4-chlorophenyl)-N-(1-((1r,4r)-4-((2S,6R)-2,6-dimethylmorpholino)cyclohexyl)-3-(3-methoxypropoxy)-1H-pyrazol-4-yl)pyrimidin-2-amine] had a pIC50 in data set [1] (setting [5]) above 8.00. Also, the inhibition in vivo at 30 mg/kg in data set [2] was above 30%.
In turn, `C[C@@H](Cn1cnnn1)Oc1cc(-c2cnc(Nc3cn([C@H]4CC[C@H](N5CCOCC5)CC4)nc3OCCc3cccnc3)nc2)ccc1Cl` [Example 510, 5-(3-(((S)-1-(1H-tetrazol-1-yl)propan-2-yl)oxy)-4-chlorophenyl)-N-(1-((1r,4r)-4-morpholinocyclohexyl)-3-(2-(pyridin-3-yl)ethoxy)-1H-pyrazol-4-yl)pyrimidin-2-amine] had a pIC50 in data set [1] (setting [5]) above 8.00.
On the same count and under the same terms, to `COCCOCCOCCOc1nn([C@H]2CC[C@H](N3CCOCC3)CC2)cc1Nc1ncc(-c2ccc(Cl)c(O[C@@H](C)Cn3cnnn3)c2)cn1` [Example 511, 5-(3-(((S)-1-(1H-tetrazol-1-yl)propan-2-yl)oxy)-4-chlorophenyl)-N-(3-(2-(2-(2-methoxyethoxy)ethoxy)ethoxy)-1-((1r,4r)-4-morpholinocyclohexyl)-1H-pyrazol-4-yl)pyrimidin-2-amine] belongs 7.00 to 8.00.
`[2H]C([2H])([2H])OCCCOc1nn([C@H]2CC[C@H](N3CCOCC3)CC2)cc1Nc1ncc(-c2ccc(Cl)c(O[C@@H](C)Cn3cnnn3)c2)cn1` [Example 512, 5-(3-(((S)-1-(1H-tetrazol-1-yl)propan-2-yl)oxy)-4-chlorophenyl)-N-(3-(3-(methoxy-d3)propoxy)-1-((1r,4r)-4-morpholinocyclohexyl)-1H-pyrazol-4-yl)pyrimidin-2-amine]: the pIC50 in data set [1] (setting [5]) was above 8.00.
The same measure, in the same setting: as for `C[C@@H](Cn1cnnn1)Oc1cc(-c2cnc(Nc3cn([C@H]4CC[C@H](N5CCOCC5)CC4)nc3OCCn3cccn3)nc2)ccc1Cl` [Example 513, N-(3-(2-(1H-pyrazol-1-yl)ethoxy)-1-((1r,4r)-4-morpholinocyclohexyl)-1H-pyrazol-4-yl)-5-(3-(((S)-1-(1H-tetrazol-1-yl)propan-2-yl)oxy)-4-chlorophenyl)pyrimidin-2-amine], the figure is above 8.00.
